Test [1] relates to Amaranthus palmeri cytosolic GS1.1 E192D. The experiment in a line: GS enzyme inhibition assay, GS1.1 E192D. Type of test: biochemical. Here is the method: (§1) GS activity was determined spectrophotometrically following the Sigma‐Aldrich enzymatic assay protocol. The reaction couples the ATP‐dependent conversion of L‐glutamate and ammonium to L‐glutamine with pyruvate kinase (PK) and L‐lactate dehydrogenase (LDH), such that oxidation of β‐NADH to β‐NAD^+ can be monitored at 340 nm. Recombinant GS from A. palmeri was expressed in E. coli, purified by affinity chromatography, and quantified by the Bradford method using bovine serum albumin as standard. […] Reaction mixtures were equilibrated to 37°C and initiated by the addition of enzyme, and the decrease in absorbance at 340 nm was recorded for 5–10 min; only the linear portion of the curve was used for activity calculations. […] Activity was calculated using an extinction coefficient for NADH of 6.22 mM^−1 cm^−1 and expressed as units per mg protein, where one unit corresponds to the formation of 1 μmol of L‐glutamine in […] at pH 7.1 and 37 °C. […] Percent inhibition was calculated relative to untreated (positive) and no‐enzyme (negative) controls. […] Resistance factors were calculated by dividing the IC₅₀ of each mutant variant by that of wild‐type GS.

The test system of test [2] is Amaranthus palmeri cytosolic GS1.1 G245C. Description: GS enzyme inhibition assay, GS1.1 G245C. It is filed as biochemical. How it is done: as §1
Where [3] appears, read: read-out: Glufosinate‐ammonium IC50.

Take `CP(=O)(O)CCC(N)C(=O)O` (stereo not shown) [Glufosinate‐ammonium]: the “Glufosinate‐ammonium % Inhibition at saturation 10 000 μM” value in test [1] (10 000 μM) and in test [2] (10 000 μM) was 0% throughout. Further, the IC50 in test [1] (setting [3]) and in test [2] (setting [3]) was greater than 10 mM each time.

A word on the IC50: it is the midpoint of a concentration-inhibition curve.

The record behind these values is article PMC13352219, “Analysis of glutamine synthetase target‐site mutations and their role in endowing glufosinate‐ammonium resistance” (Pest Management Science, 2026).
